How the values were obtained:
TNF alpha = assay: Rat TNF alpha level after global cerebral ischemia/reperfusion; type: in vivo, Wistar rats; conditions: mean ± SEM, n=6; oral 10 days, 30 min ischemia on 7th day + 72 hrs reperfusion; Standard 9.3, Agmatine sulphate 310, Bio-optimized PEA 372, combination 310+372 mg/kg; I/R control 172.17 ± 6.35
[1] = Rat feed consumption in global ischemia reperfusion induced brain injury study; conditions: Standard 9.3 mg/kg, Agmatine sulphate 310 mg/kg, Bio-optimized PEA 372 mg/kg, combination 310+372 mg/kg, p.o. daily
[2] = Rat body weight in global ischemia reperfusion induced brain injury study; conditions: n=6, Standard 9.3 mg/kg, Agmatine sulphate 310 mg/kg, Bio-optimized PEA 372 mg/kg, combination 310+372 mg/kg, p.o. daily
Interleukin - 6 = assay: Rat Interleukin-6 level after global cerebral ischemia/reperfusion; type: in vivo, Wistar rats; conditions: mean ± SEM, n=6; oral 10 days, 30 min ischemia on 7th day + 72 hrs reperfusion; Standard 9.3, Agmatine sulphate 310, Bio-optimized PEA 372, combination 310+372 mg/kg; I/R control 121.83 ± 1.65

## N=C(N)NCCCCN.O=S(=O)(O)O [Agmatine sulphate, 1-(4-Aminobutyl)guanidine sulfate]
TNF alpha
  TNF alpha Level: 142.00 ± 1.53 pg/mL
[1]
  Feed Consumption, Week 01: 99.57 ± 1.19 gm
[2]; Week 01, mean ± SEM
  Body Weight, Week 01: 224.33 ± 0.42 gm
[2]; basal, mean ± SEM
  Body Weight, Basal: 215.00 ± 0.73 gm
Interleukin - 6
  Interleukin - 6 Levels: 91.39 ± 0.92 pg/mL

Reference: US12036193B2, “Synergistic bioactive compositions for treating neurological disorders” (priority 2019, dated 2024)
